Experimental data from patent US9487479B2, “Small molecule inhibitors of N-terminus activation of the androgen receptor” (The University of British Columbia, priority 2008, dated 2016).

Experiments:
[1] = Animal body weight during the LNCaP xenograft experiment; format: in vivo, mice
Description: The subcutaneous xenograft model was used to test whether sintokamides that inhibit activation of the androgen receptor in vitro have any effect on these tumors. CB3.1 was tested in vivo using the LNCaP subcutaneous xenograft model. […] LNCaP human prostate cancer cells express endogenous androgen receptor (AR) and prostate-specific antigen (PSA), and progress to androgen independence in castrated hosts. LNCaP cells (10^6/ml) were implanted subcutaneously into NOD-SCID male mice that were at least 8 weeks in age. The cells were suspended in 75 μl of RPMI medium 1640 (5% FBS) with 75 μl of Matrigel and injected into the flank region of the host under anesthesia. LNCaP cells were implanted subcutaneously into NOD-SCID male mice and the animals were castrated when the tumors were approximately 100 mm^3 (mean=[…]; n=18) and randomized into two groups. One week after castration the animals were treated every 3 days with an intratumoral dose of 30 mg/kg body weight of CB3.1 or matching volume of vehicle (control, DMSO). […] Fifteen days after the first injection of CB3.1, the tumors were 111.81%±38.12 the tumor volume on the day of the 1st injection. While 15 days after injection of DMSO, the tumors were 180.27%±111.67 the tumor volume on the day of the 1st injection. Serum PSA provides an indication of prognosis. For animals receiving CB3.1, serum PSA was 98.47%±170.51 on day 15 after the 1st injection. […] Tumor volume and serum PSA values were consistent with CB3.1 reducing tumor burden and serum PSA compared to vehicle-treated animals.

[2] = biological target: T1, AR NTD-Gal4DBD chimera protein (Gal4DBD-AR1-558) (Homo sapiens, UniProt P10275); experiment: FSK-induced transactivation of the AR NTD (Gal4-luciferase reporter in LNCaP cells); format: cell-based; settings: 5 μg/ml, 1 hr pretreatment, FSK 50 μM for 24 h
T1 construct: co-transfected with the expression vector for Gal4DBD-AR1-558; expressed in transfected cells; host or cells: LNCaP cells
T1 sequence (P10275 1-558): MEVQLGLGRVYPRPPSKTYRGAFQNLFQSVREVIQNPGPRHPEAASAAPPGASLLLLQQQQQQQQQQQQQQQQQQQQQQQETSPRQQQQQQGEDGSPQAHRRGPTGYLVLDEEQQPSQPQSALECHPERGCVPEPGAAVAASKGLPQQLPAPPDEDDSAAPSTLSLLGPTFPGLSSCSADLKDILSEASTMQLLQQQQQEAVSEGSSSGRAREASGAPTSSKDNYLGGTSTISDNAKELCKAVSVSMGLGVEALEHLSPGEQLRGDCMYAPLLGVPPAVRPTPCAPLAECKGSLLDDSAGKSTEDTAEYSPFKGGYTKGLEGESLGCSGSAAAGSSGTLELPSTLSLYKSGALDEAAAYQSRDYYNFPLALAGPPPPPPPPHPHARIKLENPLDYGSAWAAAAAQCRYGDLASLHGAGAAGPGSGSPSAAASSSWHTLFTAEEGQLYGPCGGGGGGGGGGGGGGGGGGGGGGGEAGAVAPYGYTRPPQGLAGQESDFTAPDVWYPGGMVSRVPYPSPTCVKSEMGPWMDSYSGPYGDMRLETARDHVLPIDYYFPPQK
Description: Sintokamide A (CB3.1) (5 μg/ml) was tested for its ability to inhibit the AR NTD. LNCaP cells were co-transfected with the expression vector for Gal4DBD-AR1-558 and the complimentary 5XGal4UAS-luciferase reporter. Induction of this reporter by FSK is a measure of transactivation of the Gal4DBD-AR1-558 fusion protein (Sadar 1999 J. Biol. Chem. 274, 7777-7783).
To determine if CB3.1 blocked transactivation of the AR NTD, LNCaP cells were transfected with the plasmids for the AR NTD-Gal4DBD chimera protein and the Gal4-luciferase reporter and pretreated for 1 hr with CB3.1 (5 μg/ml) prior to addition of forskolin (FSK 50 μM) for an additional 24 h (see: Sadar et al. (1999) J. Biol. Chem. 274:7777-83).

LNCaP xenografts = experiment: LNCaP subcutaneous xenograft model in castrated NOD-SCID mice; format: in vivo; settings: intratumoral 30 mg/kg every 3 days
Description: CB3.1 reduced the size of the tumors while DMSO-treated tumors continued to grow. Animals were castrated 7 days before 1st injection and tumor volume was set to 100%. Injections were made every 3 days at a dose of 30 mg/kg body weight every 3 days. B. Photograph is of a representative harvested LNCaP xenograft treated with CB3.1. The black bar represents 10 mm.
Six to eight-week old male athymic SCID mice were inoculated subcutaneously in the flank region via a 27-gauge needle with a 150 μl suspension of LNCaP or PC3 human prostate cancer cells (1×10^6 cells). The inoculations took place while the animal was under isofluorane anaesthesia. The tumor take rate is approximately 75%. Mice bearing tumors of 100 mm^3 were randomly assigned to treatment groups. Castration was performed as described below. Tumor volume (formula: L×W×H×0.5236) was measured in mice bearing LNCaP subcutaneous tumors that became palpable or visible and at least 40 mm^3. The animals were monitored daily and tumors were measured every 5 days.
Androgen withdrawal was completed by castration. Under isoflurane anaesthesia, a 5 mm vertical incision was used to gently withdraw the epididymal fat pad, to which the testis were attached, and to remove the testis from body. The cord connecting the testis to the blood supply was ligated with a suture, then cut. The cord was then returned to the abdominal cavity. Surgical suture was used to close the incision. To relieve pain, buprenorphine (0.05 mg/kg) was injected prior to surgery.
The subcutaneous xenograft model was used to test whether sintokamides that inhibit activation of the androgen receptor in vitro have any effect on these tumors. CB3.1 was tested in vivo using the LNCaP subcutaneous xenograft model. […] LNCaP human prostate cancer cells express endogenous androgen receptor (AR) and prostate-specific antigen (PSA), and progress to androgen independence in castrated hosts. LNCaP cells (10^6/ml) were implanted subcutaneously into NOD-SCID male mice that were at least 8 weeks in age. […]

For `CCC(=O)N[C@H](C[C@H](C)C(Cl)(Cl)Cl)C(=O)N1C(=O)C=C(OC)[C@@H]1C[C@H](C)C(Cl)Cl` [CB3.1, Sintokamide A], the “change in animal body weight” value ([1]; duration of the experiment, intratumoral 30 mg/kg every 3 days) was “No change in animal body weight”, the “animal body weight, finish” value ([1]; finish of experiment, intratumoral 30 mg/kg every 3 days) was 25.0±1.4 grams and the “animal body weight, start” value ([1]; start of experiment) was 24.6±1.1 grams. For the same compound, the “FSK-induced transactivation of the AR NTD” value [2] was “reduced FSK-induced transactivation of the AR NTD to baseline levels”, the “tumor volume relative to the tumor volume on the day of the 1st injection” value (LNCaP xenografts; 15 days after first injection, castrated mice) was 111.81%±38.12 and the “serum PSA” value (LNCaP xenografts; day 15 after the 1st injection) was 98.47%±170.51. The “effect on tumor volume” value (LNCaP xenografts; castrated mice) was “showed a reduction of tumor volume”.
